Experimental data reported in ChEMBL document CHEMBL1144045, “Potent achiral agonists of the growth hormone secretagogue (ghrelin) receptor. Part 2: Lead optimisation” (Bioorg Med Chem Lett, 2008).

Experiments:
[1] = biological target: T1, Growth hormone secretagogue receptor type 1 (Homo sapiens, UniProt Q92847); assay: Agonist activity at human GHSR1a by FLIPR assay relative to human ghrelin; type: functional
[2] = biological target: T1, Growth hormone secretagogue receptor type 1; assay: Agonist activity at human GHSR1a by FLIPR assay; type: functional
[3] = biological target: 5-hydroxytryptamine receptor 1B (Homo sapiens, UniProt P28222); assay: Binding affinity to 5HT1B receptor
5-hydroxytryptamine receptor 1B, sequence (P28222 whole entry): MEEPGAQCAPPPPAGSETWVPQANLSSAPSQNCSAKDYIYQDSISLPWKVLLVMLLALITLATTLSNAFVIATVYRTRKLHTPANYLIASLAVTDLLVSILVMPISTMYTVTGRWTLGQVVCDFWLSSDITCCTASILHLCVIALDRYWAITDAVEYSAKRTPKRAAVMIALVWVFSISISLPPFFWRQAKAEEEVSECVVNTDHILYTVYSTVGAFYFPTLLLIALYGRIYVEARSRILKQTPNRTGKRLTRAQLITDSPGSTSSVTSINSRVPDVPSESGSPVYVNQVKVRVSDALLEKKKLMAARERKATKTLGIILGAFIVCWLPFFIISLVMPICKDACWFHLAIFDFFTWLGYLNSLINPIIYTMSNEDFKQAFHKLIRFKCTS

Rattus norvegicus = assay: Effect on food intake in Sprague-Dawley rat at 3 mg/kg, po after 2 hrs; type: functional
[4] = Oral bioavailability in Sprague-Dawley rat at 3 mg/kg; type: ADME, organism-based; conditions: in vivo
[5] = Clearance in Sprague-Dawley rat at 1 mg/kg, iv; type: ADME, organism-based; design: dose 1 mg/kg, route intravenous; conditions: in vivo
[6] = Half life in Sprague-Dawley rat; type: ADME, organism-based; conditions: in vivo
[7] = Volume of distribution at steady state in Sprague-Dawley rat; type: ADME, organism-based; conditions: in vivo, read-out: Vdss

T1 sequence (Q92847 whole entry): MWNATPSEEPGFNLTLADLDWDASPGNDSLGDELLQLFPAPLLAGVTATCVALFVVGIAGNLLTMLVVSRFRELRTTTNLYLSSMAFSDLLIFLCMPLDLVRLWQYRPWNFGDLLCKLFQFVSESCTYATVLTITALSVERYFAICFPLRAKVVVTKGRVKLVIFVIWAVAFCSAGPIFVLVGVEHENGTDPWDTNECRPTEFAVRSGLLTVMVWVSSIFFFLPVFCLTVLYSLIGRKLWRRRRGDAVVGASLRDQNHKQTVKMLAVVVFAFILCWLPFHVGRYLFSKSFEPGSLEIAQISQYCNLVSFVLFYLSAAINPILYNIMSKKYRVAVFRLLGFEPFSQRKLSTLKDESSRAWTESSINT

Row | Compound | Intrinsic activity [1] | EC50 [2] | further results
1 | C[C@@H]1CN(c2ccc(F)c(NS(=O)(=O)c3ccc(-c4ccccn4)s3)c2)C[C@H](C)N1 | 0.8 | 100 nM | 
2 | COc1ccc(N2C[C@@H](C)N[C@@H](C)C2)cc1NS(=O)(=O)c1ccc(-n2cccn2)cc1 | 0.8 | 15.8 nM | 
3 | C[C@@H]1CN(c2cccc(NS(=O)(=O)c3ccc(-c4ccccn4)s3)c2)C[C@H](C)N1 | 0.8 | 39.8 nM | 
4 | COc1ccc(N2C[C@@H](C)N[C@@H](C)C2)cc1NS(=O)(=O)c1ccc(-c2cccs2)cc1Cl | 0.9 | 0.794 nM | 
5 | COc1ccc(N2C[C@@H](C)N[C@@H](C)C2)cc1NS(=O)(=O)c1ccc(-c2cncnc2)cc1 | 0.6 | 316 nM | 
6 | COc1ccc(N2C[C@@H](C)N[C@@H](C)C2)cc1NS(=O)(=O)c1ccc(Br)cc1 | 0.7 | 126 nM | 
7 | COc1cccc(-c2ccc(S(=O)(=O)Nc3cc(N4C[C@@H](C)N[C@@H](C)C4)ccc3OC)cc2)c1 | 1 | 2 nM | 
8 | C[C@@H]1CN(c2ccc(C(=O)N(C)C)c(NS(=O)(=O)c3ccc(-c4ccccn4)s3)c2)C[C@H](C)N1 | 0.9 | 794 nM | 
9 | COc1ccc(N2C[C@@H](C)N[C@@H](C)C2)cc1NS(=O)(=O)c1ccc(-c2cccs2)cc1 | 1 | 3.98 nM | Ki [3]: > 3160 nM; Activity (Rattus norvegicus): 292%; bioavailability [4]: 74%; clearance [5]: 26 mL/min/kg; half-life [6]: 1 h; Vd [7]: 1.6 L/kg
10 | COc1ccc(N2C[C@@H](C)N[C@@H](C)C2)cc1NS(=O)(=O)c1cccc(-c2ccco2)c1 | 1 | 20 nM | 
11 | CCOc1ccc(N2C[C@@H](C)N[C@@H](C)C2)cc1NS(=O)(=O)c1ccc(-c2ccccn2)s1 | 0.8 | 39.8 nM | 
12 | C[C@@H]1CN(c2cc(NS(=O)(=O)c3ccc(-c4ccccn4)s3)ccc2C#N)C[C@H](C)N1 | 0.9 | 631 nM | 
13 | COc1ccc(N2C[C@@H](C)N[C@@H](C)C2)cc1NS(=O)(=O)c1ccc(OCc2ccccc2)cc1 | 0.8 | 100 nM | 
14 | COc1ccc(NS(=O)(=O)c2ccc(-c3ccccn3)s2)cc1N1C[C@@H](C)N[C@@H](C)C1 | 0.9 | 15.8 nM | 
15 | COc1ccc(N2C[C@@H](C)N[C@@H](C)C2)cc1NS(=O)(=O)c1ccc(-c2ccncc2)cc1 | 0.7 | 316 nM | 
16 | COc1ccc(N2C[C@@H](C)N[C@@H](C)C2)cc1NS(=O)(=O)c1ccc(Oc2ccccc2)cc1 | 0.9 | 63.1 nM | 
17 | COc1ccc(N2C[C@@H](C)N[C@@H](C)C2)cc1NS(=O)(=O)c1ccc(-c2cc(Cl)ccc2F)cc1 | 1 | 0.501 nM | 
18 | CC(C)Oc1ccc(N2C[C@@H](C)N[C@@H](C)C2)cc1NS(=O)(=O)c1ccc(-c2ccccn2)s1 | 1.1 | 100 nM | 
19 | COc1ccc(N2C[C@@H](C)N[C@@H](C)C2)cc1NS(=O)(=O)c1ccc(-c2ccccc2)cc1 | 1 | 6.31 nM | 
20 | C[C@@H]1CN(c2ccc(Cl)c(NS(=O)(=O)c3ccc(-c4ccccn4)s3)c2)C[C@H](C)N1 | 1 | 39.8 nM | 
21 | CC(=O)c1ccc(N2C[C@@H](C)N[C@@H](C)C2)cc1NS(=O)(=O)c1ccc(-c2ccccn2)s1 | 0.9 | 39.8 nM | 
22 | COc1ccc(N2C[C@@H](C)N[C@@H](C)C2)cc1NS(=O)(=O)c1ccc(-c2ccc(C)o2)cc1 | 1 | 0.794 nM | Ki [3]: > 3160 nM; Activity (Rattus norvegicus): 544%; bioavailability [4]: 75%; clearance [5]: 24 mL/min/kg; half-life [6]: 1.9 h; Vd [7]: 3.3 L/kg
23 | COc1ccc(N2C[C@@H](C)N[C@@H](C)C2)cc1NS(=O)(=O)c1ccc(-c2cnco2)s1 | 0.9 | 2.51 nM | 
24 | COc1ccc(F)c(-c2ccc(S(=O)(=O)Nc3cc(N4C[C@@H](C)N[C@@H](C)C4)ccc3OC)cc2)c1 | 1.2 | 0.398 nM | 
25 | COc1ccc(N2C[C@@H](C)N[C@@H](C)C2)cc1NS(=O)(=O)c1ccc(-c2ccco2)cc1 | 0.9 | 3.98 nM | 
26 | COc1ccc(N2C[C@@H](C)N[C@@H](C)C2)cc1NS(=O)(=O)c1ccc(-c2ccccn2)s1 | 1.1 | 10 nM | 
27 | COc1ccc(N2C[C@@H](C)N[C@@H](C)C2)cc1NS(=O)(=O)c1cccc(-c2ccccc2)c1 | 1 | 158 nM | 
28 | COc1ccc(N2C[C@@H](C)N[C@@H](C)C2)cc1NS(=O)(=O)c1ccc(N2CCCC2=O)cc1 | 0.8 | 39.8 nM | 
29 | COc1ccc(N2C[C@@H](C)N[C@@H](C)C2)cc1NS(=O)(=O)c1ccc(-c2cccs2)cc1F | 0.9 | 2 nM | 
